Measured values from patent publication US20230114728A1 (Venatorx Pharmaceuticals, Inc., priority 2019, published 2023).
Converted amounts (≈) assume the structure as drawn.

Columns and labels:
Assay type in all cases: cell-based
[1] = system: N. gonorrhoeae ATCC 49226; experiment: Liquid broth MIC in Fastidious broth; conditions: Neisseria gonorrhoeae, ATCC49226; N. gonorrhoeae strain ATCC 49226; Fastidious broth; read-out: Minimum Inhibitory Concentration, N. gonorrhoeae ATCC 49226
In short: (§1)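 Colonies were swabbed from chocolate agar after 24 h growth and standardised by optical density at 600 nm. Compounds were serially diluted twofold in Fastidious broth, and bacteria added to give 5×10^5 CFU/mL. After about 24 h at 36 °C in 5% CO2, the lowest concentration allowing under 10% growth was taken as MIC.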

N. gonorrhoeae FA1090 = experiment: Liquid broth MIC in Fastidious broth; conditions: Neisseria gonorrhoeae; N. gonorrhoeae strain FA1090; Fastidious broth; read-out: Minimum Inhibitory Concentration, N. gonorrhoeae FA1090
In short: as §1

N. gonorrhoeae H041 = experiment: Liquid broth MIC in Fastidious broth; conditions: Neisseria gonorrhoeae, H041, read-out: Minimum Inhibitory Concentration, N. gonorrhoeae H041
In short: as §1

N. gonorrhoeae WHO G = experiment: Liquid broth MIC in Fastidious broth; conditions: Neisseria gonorrhoeae; N. gonorrhoeae strain WHO G; Fastidious broth; read-out: Minimum Inhibitory Concentration, N. gonorrhoeae WHO G
In short: as §1

N. gonorrhoeae WHO K = experiment: Liquid broth MIC in Fastidious broth; conditions: Neisseria gonorrhoeae, read-out: Minimum Inhibitory Concentration, N. gonorrhoeae WHO K
In short: as §1

N. gonorrhoeae WHO L = experiment: Liquid broth MIC in Fastidious broth; conditions: Neisseria gonorrhoeae; N. gonorrhoeae strain WHO L; Fastidious broth; read-out: Minimum Inhibitory Concentration, N. gonorrhoeae WHO L
In short: as §1

E. coli 901C = experiment: Broth microdilution MIC in CAMHB; conditions: Escherichia coli; E. coli 901C (hyper-permeable); MHB; read-out: Minimum Inhibitory Concentration, E. coli 901C
In short: (§2)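 Colonies from cation-adjusted Mueller Hinton agar are grown in broth (3-5 h, 37° C), adjusted by OD600, and added at 2-8×10^5 CFU/mL to 2-fold compound dilutions. After 16-20 h at 37° C, the lowest concentration without growth is taken as MIC.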

E. coli AG100A = experiment: Broth microdilution MIC in CAMHB; conditions: Escherichia coli, read-out: Minimum Inhibitory Concentration, E. coli AG100A
In short: as §2

E. coli AG100 = experiment: Broth microdilution MIC in CAMHB; conditions: Escherichia coli; E. coli AG100 (wild-type parent); MHB; read-out: Minimum Inhibitory Concentration, E. coli AG100
In short: as §2

E. coli D22 = experiment: Broth microdilution MIC in CAMHB; conditions: Escherichia coli; E. coli D22 (hyper-permeable); MHB; read-out: Minimum Inhibitory Concentration, E. coli D22
In short: as §2

[2] = system: K. pneumoniae UMM producing SHV-5 and KPC-2; experiment: Broth microdilution MIC in CAMHB; conditions: Klebsiella pneumoniae, read-out: Minimum Inhibitory Concentration, K. pneumoniae UMM
In short: as §2

Nc1nc(C(NC(=O)N2CCN(CCNC(=O)c3ccc(O)c(O)c3Cl)C(=O)C2=O)C(=O)N[C@H]2Cc3ccc(F)c(C(=O)O)c3OB2O)c(F)s1 (stereo partly drawn) [Example 4, (3R)-3-(2-(2-amino-5-fluorothiazol-4-yl)-2-(4-(2-(2-chloro-3,4-dihydroxybenzamido)ethyl)-2,3-dioxopiperazine-1-carboxamido)acetamido)-7-fluoro-2-hydroxy-3,4-dihydro-2H-benzo[e][1,2]oxaborinine-8-carboxylic acid]
MIC [1]: 16 to 32 mg/L (≈ 21.3 to 42.6 µM) | MIC (N. gonorrhoeae FA1090): 4 to 8 mg/L (≈ 5.32 to 10.6 µM) | MIC (N. gonorrhoeae H041): > 64 mg/L | MIC (N. gonorrhoeae WHO G): 4 to 8 mg/L (≈ 5.32 to 10.6 µM) | MIC (N. gonorrhoeae WHO K): > 64 mg/L | MIC (N. gonorrhoeae WHO L): > 64 mg/L

CCN1CCN(C(=O)NC(C(=O)N[C@H]2Cc3ccc(F)c(C(=O)O)c3OB2O)c2ncc(C(=O)O)cc2F)C(=O)C1=O (stereo partly drawn) [Example 33, 6-(2-(((R)-8-carboxy-7-fluoro-2-hydroxy-3,4-dihydro-2H-benzo[e][1,2]oxaborinin-3-yl)amino)-1-(4-ethyl-2,3-dioxopiperazine-1-carboxamido)-2-oxoethyl)-5-fluoronicotinic acid]
MIC (E. coli 901C): 2 to 4 mg/L (≈ 3.39 to 6.79 µM) | MIC (E. coli AG100A): > 128 mg/L | MIC (E. coli AG100): > 128 mg/L | MIC (E. coli D22): 2 to 4 mg/L (≈ 3.39 to 6.79 µM) | MIC [2]: > 128 mg/L | MIC [1]: 16 to 32 mg/L (≈ 27.2 to 54.3 µM) | MIC (N. gonorrhoeae FA1090): 4 to 8 mg/L (≈ 6.79 to 13.6 µM) | MIC (N. gonorrhoeae H041): > 64 mg/L | MIC (N. gonorrhoeae WHO G): 16 to 32 mg/L (≈ 27.2 to 54.3 µM) | MIC (N. gonorrhoeae WHO K): > 64 mg/L | MIC (N. gonorrhoeae WHO L): > 64 mg/L

O=C(NCCCN1CCN(C(=O)NC(C(=O)N[C@H]2Cc3cccc(C(=O)O)c3OB2O)c2ncc(O)cc2F)C(=O)C1=O)c1ccc(O)c(O)c1Cl (stereo partly drawn) [Example 1, (3R)-3-(2-(4-(3-(2-chloro-3,4-dihydroxybenzamido)propyl)-2,3-dioxopiperazine-1-carboxamido)-2-(3-fluoro-5-hydroxypyridin-2-yl)acetamido)-2-hydroxy-3,4-dihydro-2H-benzo[e][1,2]oxaborinine-8-carboxylic acid]
MIC (E. coli 901C): 8 to 16 mg/L (≈ 10.8 to 21.5 µM) | MIC (E. coli AG100A): 8 to 16 mg/L (≈ 10.8 to 21.5 µM) | MIC (E. coli AG100): 32 to 64 mg/L (≈ 43.1 to 86.2 µM) | MIC (E. coli D22): 8 to 16 mg/L (≈ 10.8 to 21.5 µM) | MIC [2]: 8 to 16 mg/L (≈ 10.8 to 21.5 µM)

Nc1nc(/C(=N/OC[C@H](NC(=O)c2ccc(O)c(O)c2Cl)C(=O)O)C(=O)N[C@H]2Cc3cccc(C(=O)O)c3OB2O)cs1 [Example 6, (R)-3-((Z)-2-(2-aminothiazol-4-yl)-2-(((S)-2-carboxy-2-(2-chloro-3,4-dihydroxybenzamido)ethoxy)imino)acetamido)-2-hydroxy-3,4-dihydro-2H-benzo[e][1,2]oxaborinine-8-carboxylic acid]
MIC [1]: > 64 mg/L | MIC (N. gonorrhoeae FA1090): 16 to 32 mg/L (≈ 25.2 to 50.5 µM) | MIC (N. gonorrhoeae H041): > 64 mg/L | MIC (N. gonorrhoeae WHO G): 16 to 32 mg/L (≈ 25.2 to 50.5 µM) | MIC (N. gonorrhoeae WHO K): > 64 mg/L | MIC (N. gonorrhoeae WHO L): > 64 mg/L

O=C(NCCN1CCN(C(=O)NC(C(=O)N[C@H]2Cc3ccc(F)c(C(=O)O)c3OB2O)c2ncc(O)cc2F)C(=O)C1=O)c1c(F)cc(O)c(O)c1Cl (stereo partly drawn) [Example 5, (3R)-3-(2-(4-(2-(2-chloro-6-fluoro-3,4-dihydroxybenzamido)ethyl)-2,3-dioxopiperazine-1-carboxamido)-2-(3-fluoro-5-hydroxypyridin-2-yl)acetamido)-7-fluoro-2-hydroxy-3,4-dihydro-2H-benzo[e][1,2]oxaborinine-8-carboxylic acid]
MIC [1]: > 64 mg/L | MIC (N. gonorrhoeae FA1090): 4 to 8 mg/L (≈ 5.23 to 10.5 µM) | MIC (N. gonorrhoeae H041): > 64 mg/L | MIC (N. gonorrhoeae WHO G): 16 to 32 mg/L (≈ 20.9 to 41.8 µM) | MIC (N. gonorrhoeae WHO K): > 64 mg/L | MIC (N. gonorrhoeae WHO L): > 64 mg/L

O=C(NCCCN1CCN(C(=O)NC(C(=O)N[C@H]2Cc3ccc(F)c(C(=O)O)c3OB2O)c2ncc(O)cc2F)C(=O)C1=O)c1ccc(O)c(O)c1Cl (stereo partly drawn) [Example 3, (3R)-3-(2-(4-(3-(2-chloro-3,4-dihydroxybenzamido)propyl)-2,3-dioxopiperazine-1-carboxamido)-2-(3-fluoro-5-hydroxypyridin-2-yl)acetamido)-7-fluoro-2-hydroxy-3,4-dihydro-2H-benzo[e][1,2]oxaborinine-8-carboxylic acid]
MIC (E. coli 901C): 8 to 16 mg/L (≈ 10.5 to 21 µM) | MIC (E. coli AG100A): 32 to 64 mg/L (≈ 42.1 to 84.1 µM) | MIC (E. coli AG100): 32 to 64 mg/L (≈ 42.1 to 84.1 µM) | MIC (E. coli D22): 32 to 64 mg/L (≈ 42.1 to 84.1 µM) | MIC [2]: 32 to 64 mg/L (≈ 42.1 to 84.1 µM)
